Molecular target: T1, CDSecA2 (Clostridioides difficile, UniProt Q183M9)
T1 construct: gene secA2; pMCSG7, E. coli BL21(DE3); His tag cut by TEV, extra N-terminal SNAAA kept; monomer in crystal
Assay: X-ray crystallography (cocrystallization)
Assay type: binding
Settings: 2 mM ATP-γ-S, 4 mM MgCl2, pH 8.3, 20 °C; active site between NBD1 and NBD2, Walker A/B

T1 sequence (Q183M9 whole entry): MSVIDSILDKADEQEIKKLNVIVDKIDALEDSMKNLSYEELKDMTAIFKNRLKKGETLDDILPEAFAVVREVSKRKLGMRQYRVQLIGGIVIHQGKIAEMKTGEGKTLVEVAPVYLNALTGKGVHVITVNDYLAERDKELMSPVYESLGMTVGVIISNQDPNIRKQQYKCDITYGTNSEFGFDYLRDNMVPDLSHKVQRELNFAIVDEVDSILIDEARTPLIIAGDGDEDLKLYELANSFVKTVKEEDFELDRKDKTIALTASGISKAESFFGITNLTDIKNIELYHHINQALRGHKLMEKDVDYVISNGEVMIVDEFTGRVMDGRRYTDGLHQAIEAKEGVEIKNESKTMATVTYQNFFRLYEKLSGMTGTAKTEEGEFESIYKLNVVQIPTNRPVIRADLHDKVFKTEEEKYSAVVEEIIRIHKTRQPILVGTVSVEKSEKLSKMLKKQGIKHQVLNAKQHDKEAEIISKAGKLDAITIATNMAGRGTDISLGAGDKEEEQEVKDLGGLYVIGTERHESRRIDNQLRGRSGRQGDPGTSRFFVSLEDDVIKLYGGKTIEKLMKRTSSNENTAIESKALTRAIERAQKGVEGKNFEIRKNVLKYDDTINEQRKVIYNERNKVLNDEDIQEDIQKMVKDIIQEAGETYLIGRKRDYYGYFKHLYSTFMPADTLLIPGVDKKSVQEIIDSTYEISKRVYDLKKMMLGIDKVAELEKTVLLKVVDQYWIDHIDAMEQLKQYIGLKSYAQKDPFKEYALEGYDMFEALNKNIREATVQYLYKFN

Nc1ncnc2c1ncn2[C@@H]1O[C@H](COP(=O)(O)OP(=O)(O)OP(O)(O)=S)[C@@H](O)[C@H]1O [ATP-γ-S, adenosine-5′-(γ-thio)-triphosphate]
X-ray crystallography (cocrystallization): the electron density map for the ATP-γ-S ligand unambiguously positioned it in the active site
